pEC50, pKi: −log10 of the molar value.
Legend:
[1] = target: isolated recombinant JAK1 kinase domain (Homo sapiens (Human), UniProt P23458); assay: JAK1 enzyme assay (Caliper LabChip, peptide phosphorylation); format: biochemical; settings: isolated recombinant JAK1 kinase domain, 25 μM ATP
[2] = target: isolated recombinant JAK2 kinase domain (Homo sapiens (Human), UniProt O60674); assay: JAK2 enzyme assay (Caliper LabChip, peptide phosphorylation); format: biochemical; settings: 25 μM ATP
[3] = system: JAK1-dependent STAT6 phosphorylation downstream of IL-13 stimulation in TF-1 human erythroleukemia cells; assay: JAK1 pathway assay in TF-1 cells (IL-13-pSTAT6, MSD); format: cell-based; settings: Homo sapiens, TF-1, TF-1 cells, read-out: IL13-pSTAT6 EC50_TF-1
Summary of the method: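 TF-1 cells starved of GM-CSF overnight, assayed serum-free; BEAS-2B cells in complete growth medium. Lysate pSTAT6 measured by MSD; EC50 derived.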

Chain of isolated recombinant JAK1 kinase domain (P23458 875-1153): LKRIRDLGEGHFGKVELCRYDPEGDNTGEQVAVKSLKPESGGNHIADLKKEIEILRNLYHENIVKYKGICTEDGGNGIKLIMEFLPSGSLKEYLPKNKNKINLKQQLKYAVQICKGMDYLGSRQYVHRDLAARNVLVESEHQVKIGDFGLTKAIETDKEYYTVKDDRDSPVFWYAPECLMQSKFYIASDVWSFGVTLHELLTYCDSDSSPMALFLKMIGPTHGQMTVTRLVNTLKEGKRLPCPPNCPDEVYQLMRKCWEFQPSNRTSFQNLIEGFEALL
Chain of isolated recombinant JAK2 kinase domain (O60674 849-1124): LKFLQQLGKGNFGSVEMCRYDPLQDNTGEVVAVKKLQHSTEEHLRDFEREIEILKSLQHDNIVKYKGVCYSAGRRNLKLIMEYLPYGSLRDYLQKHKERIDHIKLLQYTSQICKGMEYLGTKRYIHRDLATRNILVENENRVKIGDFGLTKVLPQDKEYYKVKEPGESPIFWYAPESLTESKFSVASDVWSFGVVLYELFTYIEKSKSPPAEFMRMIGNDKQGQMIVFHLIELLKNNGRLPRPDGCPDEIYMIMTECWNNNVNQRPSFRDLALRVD

Row | SMILES | pKi [1] | pKi [2] | pEC50 [3]
1 | CCCCOc1ccc(CN(C)C2CCN(C(=O)Cn3cc(NC(=O)c4cnn5cccnc45)c(-c4cc(Cl)ccc4OC(F)F)n3)CC2)cc1 [Example 127, N-[1-[2-[4-[(4-butoxyphenyl)methyl-methyl-amino]-1-piperidyl]-2-oxo-ethyl]-3-[5-chloro-2-(difluoromethoxy)phenyl]pyrazol-4-yl]pyrazolo[1,5-a]pyrimidine-3-carboxamide] | 9.11 | 8.61 | 7.14
2 | O=C(Nc1cn(CC(=O)N2CCC(N3CCCC3)CC2)nc1-c1cc(Cl)ccc1OC(F)F)c1cnn2cccnc12 [Example 69, N-[3-[5-chloro-2-(difluoromethoxy)phenyl]-1-[2-oxo-2-(4-pyrrolidin-1-yl-1-piperidyl)ethyl]pyrazol-4-yl]pyrazolo[1,5-a]pyrimidine-3-carboxamide] | 9.07 | 8.61 | 7.69
3 | O=C(Nc1cn(CC(=O)N2CCC(CN3CCC(F)(F)CC3)(c3ccccc3)CC2)nc1-c1cc(Cl)ccc1OC(F)F)c1cnn2cccnc12 [Example 111, N-[3-[5-chloro-2-(difluoromethoxy)phenyl]-1-[2-[4-[(4,4-difluoro-1-piperidyl)methyl]-4-phenyl-1-piperidyl]-2-oxo-ethyl]pyrazol-4-yl]pyrazolo[1,5-a]pyrimidine-3-carboxamide] | 8.51 | 7.97 | 6.69
4 | O=C(Nc1cn(C2CCN(CCCN3CCCC3=O)CC2)nc1-c1cc(Cl)ccc1OC(F)F)c1cnn2cccnc12 [Example 155, N-[3-[5-chloro-2-(difluoromethoxy)phenyl]-1-[1-[3-(2-oxopyrrolidin-1-yl)propyl]-4-piperidyl]pyrazol-4-yl]pyrazolo[1,5-a]pyrimidine-3-carboxamide] | 8.81 | 9.62 | 8.29
5 | CN(CCCN1CCC(n2cc(NC(=O)c3c(N)nn4cccnc34)c(-c3cc(Cl)ccc3OC(F)F)n2)CC1)C(=O)c1ccccc1 [Example 151, 2-amino-N-[1-[1-[3-[benzoyl(methyl)amino]propyl]-4-piperidyl]-3-[5-chloro-2-(difluoromethoxy)phenyl]pyrazol-4-yl]pyrazolo[1,5-a]pyrimidine-3-carboxamide] | 8.70 | 9.38 | 7.03

Other lines, results leading:

Row | pKi [1] | pKi [2] | pEC50 [3] | SMILES
6 | 9.17 | 10.05 | 7.91 | CC(C)CN1CCC(n2cc(NC(=O)c3c(N)nn4cccnc34)c(-c3cc(Cl)ccc3OC(F)F)n2)CC1 [Example 174, 2-amino-N-[3-[5-chloro-2-(difluoromethoxy)phenyl]-1-(1-isobutyl-4-piperidyl)pyrazol-4-yl]pyrazolo[1,5-a]pyrimidine-3-carboxamide]
7 | 9.17 | 9.92 | 7.90 | Nc1nn2cccnc2c1C(=O)Nc1cn(C2CCN(CCCO)CC2)nc1-c1cc(Cl)ccc1OC(F)F [Example 176, 2-amino-N-[3-[5-chloro-2-(difluoromethoxy)phenyl]-1-[1-(3-hydroxypropyl)-4-piperidyl]pyrazol-4-yl]pyrazolo[1,5-a]pyrimidine-3-carboxamide]
8 | 9.27 | 8.80 | 7.54 | CN1CCC2(CC1)CCN(C(=O)Cn1cc(NC(=O)c3cnn4cccnc34)c(-c3cc(Cl)ccc3OC(F)F)n1)C2 [Example 222, N-[3-[5-chloro-2-(difluoromethoxy)phenyl]-1-[2-(8-methyl-2,8-diazaspiro[4.5]decan-2-yl)-2-oxo-ethyl]pyrazol-4-yl]pyrazolo[1,5-a]pyrimidine-3-carboxamide]
9 | 9.35 | 10.05 | 7.82 | CS(=O)(=O)CCCN1CCC(n2cc(NC(=O)c3c(N)nn4cccnc34)c(-c3cc(Cl)ccc3OC(F)F)n2)CC1 [Example 177, 2-amino-N-[3-[5-chloro-2-(difluoromethoxy)phenyl]-1-[1-(3-methylsulfonylpropyl)-4-piperidyl]pyrazol-4-yl]pyrazolo[1,5-a]pyrimidine-3-carboxamide]
